Laboratory results: patent US6974681B1, “Cell culture performance with vanadate” (Immunex Corporation, priority 2002, dated 2005)
Several values for one entry are separate records, joined by “and”; a condition that tells them apart may be missing. Identical values can stand only once.

Experiments:
[1] = tested on: Chinese Hamster Ovary (CHO) cell line genetically engineered to produce huTNFR:Fc; test: Dose response of vanadate in shake flask cultures (viable cell density, viability); format: cell-based; conditions: day 5, shake flask, serum-free medium
Description: In this experiment, the effect of adding various concentrations of vanadate was tested in mammalian cell shake flask cultures. A Chinese Hamster Ovary (CHO) cell line that had been genetically engineered to produce huTNFR:Fc (a soluble form of the human tumor necrosis factor alpha receptor extracellular domain fused to an Fc polypeptide from an immunogolublin see in U.S. Pat. No. 5,945,397) was grown in serum-free medium. A dose response analysis was performed to determine an optimal dose for vanadate.

[2] = tested on: recombinant cell culture (expressing huTNFR-Fc); test: Bioreactor culture (balanced feed experiment) with reduced IGF-1 plus vanadate, FIG. 1; format: cell-based; conditions: 25 µg/L IGF-1 with 20 μM sodium orthovanadate compared to 100 µg/L IGF-1 without vanadate
Description: FIG. 1. Addition of sodium orthovanadate to a recombinant cell culture (expressing huTNFR-Fc) reduces the requirement for IGF-1 to maintain viability in a balanced feed experiment. […]
(§1) Vanadate can also reduce the requirement for growth factors to maintain recombinant cell viability. […] At 5 ng/L with vanadate, IGF-1 is sufficient to maintain the same viability of recombinant polypeptide producing cells as 100 μg/L IGF-1 in the absence of vanadate.
The results from these experiments show how adding vanadate, in this case orthovanadate, can be applied in mammalian cell culture for a number of purposes. Cell viability is increased in cultures having 20 μM orthovanadate compared to cells grown without orthovanadate over a five day period (FIG. 1). In short, adding vanadate, such as orthovanadate, helps to create a more efficient mammalian cell culture process by reducing cell death, reducing the requirement of growth factors in the cell culture and increasing secreted polypeptide production.

Recombinant CHO Cells = test: Effect of vanadate and reduced IGF-1 on recombinant CHO cells; format: cell-based, Chinese Hamster; set-up: cells/ml: scale not given here
Description: as §1

[3] = tested on: CHO cells expressing huTNFR-Fc; test: Cell concentration and viability (hemacytometer, trypan blue dye exclusion) of cultures expressing huTNFR-Fc with inducing agents; format: cell-based, Chinese Hamster; conditions: day 5, 31° C.
Description: (§2) A second experiment was performed to test the effects of sodium orthovanadate on specific production of the recombinant polypeptide huTNFR-Fc, expressed from cells when compared to the same cells grown without vanadate. Flasks were inoculated at 2×10^6 cells/ml and were either grown without additional compounds or with sodium butyrate at 0.5 mM or sodium butyrate with sodium orthovanadate at 20 μM. Flasks were set up in an incubator at 31° C. Measurements for cell concentration and viability were taken using a hemacytometer and the trypan blue dye exclusion method and the results are shown in Table 2. Production of huTNFR-Fc was measured by standard ELISA.

[4] = tested on: CHO cells expressing huTNFR-Fc; test: Production of huTNFR-Fc measured by standard ELISA; format: cell-based, Chinese Hamster; conditions: NaButyrate 0.5 mM, culture without inducing agent normalized to 100%
Description: as §2

[5] = with sodium orthovanadate (+), IGF-1 5 ng/L
[6] = with sodium orthovanadate (+), IGF-1 100 μg/L
[7] = IGF-1 5 ng/L, without sodium orthovanadate (−)
[8] = IGF-1 100 μg/L, without sodium orthovanadate (−)

Compound: [Na+].[Na+].[Na+].[O]=[V]([O-])([O-])[O-] [Vanadate, sodium orthovanadate]
- % Viability ([1]; 10 uM vanadate): 80% and 89%
- VCD, ×10^6 ([1]; 10 uM vanadate): 5.102 ×10^6 and 6.796 ×10^6
- % Viability ([1]; 20 uM vanadate): 90%
- VCD, ×10^6 ([1]; 20 uM vanadate): 5.8 ×10^6
- % Viability ([1]; 35 uM vanadate): 87% and 90%
- VCD, ×10^6 ([1]; 35 uM vanadate): 5.142 ×10^6 and 5.184 ×10^6
- % Viability ([1]; 50 uM vanadate): 83% and 81%
- VCD, ×10^6 ([1]; 50 uM vanadate): 4.136 ×10^6 and 3.625 ×10^6
- cell viability ([2]; after four days): improved
- cell survival ([2]; after six days): markedly more cell survival
- % viable (Recombinant CHO Cells; [5]): 73%
- cells/ml (Recombinant CHO Cells; [5]): 4.916 cells/ml
- % viable (Recombinant CHO Cells; [6]): 90%
- cells/ml (Recombinant CHO Cells; [6]): 6.806 cells/ml
- % Viability ([3]; sodium butyrate 0.5 mM with sodium orthovanadate 20 μM (0.02 mM)): 95%

Compound: CCCC(=O)[O-].[Na+] [NaButyrate, sodium butyrate]
- Specific Productivity [4]: 161% and 153%
- Titer [4]: 140% and 125%
- % Viability ([3]; NaButyrate 0.5 mM): 78%
- VCD, ×10^6 ([3]; NaButyrate 0.5 mM): 5.547 ×10^6 and 5.067 ×10^6

Compound: IGF-1: insulin like growth factor (IGF-1), growth factor added to the medium
- % viable (Recombinant CHO Cells; [7]): 58%
- cells/ml (Recombinant CHO Cells; [7]): 3.936 cells/ml
- % viable (Recombinant CHO Cells; [8]): 74%
- cells/ml (Recombinant CHO Cells; [8]): 5.825 cells/ml
